From patent US6835382B2, “Ii peptide therapeutics to enhance antigen presentation” (University of Massachusetts, priority 1996, dated 2004)
Non-standard residues stand in square brackets, D forms with d. hArg = N=C(N)NCCCC[C@H](N)C(=O)O; Cit = NC(=O)NCCC[C@H](N)C(=O)O; Orn = NCCC[C@H](N)C(=O)O

Key:
[1] = biological target: T1, murine E^d MHC class II allele (Mus musculus, UniProt P01904+P01915); assay: antigenic peptide prepulse assay, E^d allele (fixed APC prepulsed with HEL106-116); format: cell-based; set-up: The A20 and CH27 B cell lymphoma lines express H-2^d and H-2^k alleles, respectively; endogenous in cells; host or cells: A20 B cell lymphoma (mitomycin C-treated or paraformaldehyde-fixed); details: AE peptide 64 μM; for Activity in antigenic peptide prepulse assay, E^d (baseline = 1.0): Table 26; for Activity in antigenic peptide prepulse assay, E^d (baseline without AE peptide = 1.00): Table 19, prepulse 12 μM HEL106-116
T1 sequence (P01904 26-255): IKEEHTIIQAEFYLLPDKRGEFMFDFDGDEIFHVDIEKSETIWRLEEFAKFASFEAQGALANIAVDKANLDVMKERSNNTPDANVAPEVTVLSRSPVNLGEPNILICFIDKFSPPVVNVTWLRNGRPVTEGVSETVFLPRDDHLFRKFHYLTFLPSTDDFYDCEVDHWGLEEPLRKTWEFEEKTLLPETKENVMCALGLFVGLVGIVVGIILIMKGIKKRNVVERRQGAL
T1 sequence (P01915 27-264 limits assumed): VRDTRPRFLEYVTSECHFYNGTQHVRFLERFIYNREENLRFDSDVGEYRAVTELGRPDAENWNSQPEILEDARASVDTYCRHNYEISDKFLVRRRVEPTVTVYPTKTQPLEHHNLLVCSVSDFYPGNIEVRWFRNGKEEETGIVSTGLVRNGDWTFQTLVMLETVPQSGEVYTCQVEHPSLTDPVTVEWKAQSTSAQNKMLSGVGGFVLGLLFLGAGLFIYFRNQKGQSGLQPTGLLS
Procedure: (§1) In a second type of assay, the “peptide prepulse assay”, the antigenic peptide is incubated with paraformaldehyde-fixed APC for 6 h. The APC are washed and incubated for 24 h with the AE101 series homolog and the T cell hybridoma specific for the antigenic peptide. After that incubation, an aliquot of the culture supernatant is transferred to a second culture to measure the relative degree of T hybridoma stimulation, as reflected in the effect of released interleukins on the growth of an interleukin-dependent, indicator cell line, as described above.
(§2) The two above described assays measure different aspects of the molecular mechanism of the AE101 series of peptides. In the “simultaneous assay”, AE101 series peptides are thought to induce the release of endogenously bound peptides and to permit the binding of the second, specific antigenic peptide which is relatively abundant in the culture fluid. The AE101 series peptides enhance antigenic peptide-specific T cell responses in simultaneous assays. In the “peptide prepulse” assay, the specific antigenic peptide becomes bound to MHC class II molecules on the surface of the fixed APC during the 6 h prepulse incubation. The effect of the AE101 series homologs is then thought to release that antigenic peptide, resulting in an apparent suppression of the immune response.
(§3) The AE101 series peptides are thought to contact the MHC class II molecules at a discrete site outside the antigenic peptide-binding groove. AE101 peptide binding to this “Ii-KEY” site is thought to induce a conformational change in the MHC class II molecules accelerating the dissociation of previously bound antigenic peptide. […] The AE101 series peptides thus inhibit antigenic peptide-specific T cell responses in the “peptide prepulse” assays.
(§4) Antigenic peptide-specific T cell activation was measured by the following procedure. Mitomycin C-treated A20 cells (A^dE^d) or CH27 cells APC (A^kE^k) were generated by incubating 5×10^6 cells/mL for 20 min at 37° C. with 0.025 mg/mL of mitomycin C (Sigma) in Dulbecco's Modified Eaglel's Medium (DMEM)/10 mM N-2(hydroxyethylpiperazine-N″[2-ethanesulfonic acid] (HEPES), followed by two washes with four volumes of DMEM-5% fetal calf serum (FCS), 10 mM HEPES. Fixed APC were generated by treating 1×10^6 cells/mL for 5 min with 0.5% paraformaldehyde in PBS (pH 7.2), followed by two washes with four volumes of DMEM-10% FCS, 10 mM HEPES. T cell hybridomas were irradiated 2200 rads before each assay.
(§5) The “peptide prepulse assay” was carried out under essentially the same conditions as described for the “simultaneous assay” with the following modifications. Fixed APC were first incubated for 6 h at 1×10^6 cells/mL in complete DMEM-5% FCS in 24-well microculture plates (1 mL/well) with antigenic peptide, followed by four washes with 10 volumes of DMEM-5% FCS. The cells were then exposed to varying concentrations of AE101 series peptide (64 μM, 16 μM, 4 μM, and 1 μM) for 24 h in the presence of the T cell hybridoma specific to the antigenic peptide. Interleukin release from these cultures was measured by proliferation of HT-2 cells to interleukins in supernatants transferred from the primary culture. Generally, a single dose of 64 μM of each AE101 series peptide was used. The baseline T cell response was measured by culturing T hybridoma cells with the antigenic peptide-prepulsed APC in the absence of AE101 series peptides.
[…] […] Paraformaldehyde-treated APC (fixed APC) expressing MHC class II molecules were incubated with antigenic peptide for 6 h (HEL106-116 for E^d and PGCC81-104 for E^k). After this incubation, the prepulsed APC were washed and cultured with T hybridoma cells and AE101 series peptides. […] The AE101 series peptide concentrations were 64 μM for E^d and 16 μM for E^k. The dilutions of supernatant taken into the HT-2 cell assay were 1:4 for Ed and 1:2 for E^k.

[2] = test system: murine E^k MHC class II allele; assay: antigenic peptide prepulse assay, E^k allele (fixed APC prepulsed with PGCC81-104); format: cell-based; details: for Activity in antigenic peptide prepulse assay, E^k (baseline = 1.0): Table 26, prepulse 1.25 μM antigenic peptide; for Activity in antigenic peptide prepulse assay, E^k (baseline without AE peptide = 1.00): Table 19, prepulse 20 μM PGCC81-104
Procedure: as §1, §2, §3, §4, §5
Table 19: Activities of C-terminal truncation analogs of AE101 in an antigenic peptide prepulse assay. […] Paraformaldehyde-treated APC (fixed APC) expressing MHC class II molecules were incubated with antigenic peptide for 6 h (HEL106-116 for E^d and PGCC81-104 for E^k). After this incubation, the prepulsed APC were washed and cultured with T hybridoma cells and AE101 series peptides. The antigenic peptide concentration during the prepulse was 12 μM for Ed and 20 μM for E^k. The AE101 series peptide concentrations were 64 μM for E^d and 16 μM for E^k. […]

[3] = Table 22, prepulse 6 μM antigenic peptide, supernatant 1:8
[4] = Table 24, prepulse 24 μM antigenic peptide, supernatant 1:4
[5] = Table 22, AE peptide 16 μM, prepulse 20 μM antigenic peptide, supernatant 1:2
[6] = Table 24, AE peptide 64 μM, prepulse 0.625 μM antigenic peptide, supernatant 1:8
[7] = prepulse 24 μM antigenic peptide, supernatant 1:2
[8] = AE peptide 64 μM, supernatant 1:8
[9] = Table 20, prepulse 3 μM antigenic peptide, supernatant 1:2
[10] = Table 20, AE peptide 16 μM, prepulse 20 μM antigenic peptide, supernatant 1:2
[11] = AE peptide 16 μM, supernatant 1:2
[12] = Table 25, prepulse 24 μM antigenic peptide, supernatant 1:4
[13] = Table 25, AE peptide 64 μM, prepulse 2.5 μM antigenic peptide, supernatant 1:10

Ac-LRMK l PK-NH2 [AE164]
Activity in antigenic peptide prepulse assay, E^d (baseline = 1.00) [1, 3]: 0.37
Activity in antigenic peptide prepulse assay, E^d (baseline = 1.00) [1, 4]: 0.59
Activity in antigenic peptide prepulse assay, E^k (baseline = 1.00) [2, 5]: 0.21
Activity in antigenic peptide prepulse assay, E^k (baseline = 1.00) [2, 6]: 0.67

Ac-LR m KLPK-NH2 [AE162]
Activity in antigenic peptide prepulse assay, E^d (baseline = 1.00) [1, 3]: 0.28
Activity in antigenic peptide prepulse assay, E^k (baseline = 1.00) [2, 5]: 0.61

Ac-LRMKLP[Cit]-NH2 [AE241]
Activity in antigenic peptide prepulse assay, E^d (baseline = 1.0) [1, 7]: 0.70
Activity in antigenic peptide prepulse assay, E^k (baseline = 1.0) [2, 8]: 0.99

Ac-Y Q MKLPKSAK-NH2 [AE138]
Activity in antigenic peptide prepulse assay, E^d (baseline = 1.00) [1, 9]: 0.73
Activity in antigenic peptide prepulse assay, E^k (baseline = 1.00) [2, 10]: 0.85

Ac-YRMK-NH2 [AE117]
Activity in antigenic peptide prepulse assay, E^d (baseline without AE peptide = 1.00) ([1]; supernatant 1:4): 0.65
Activity in antigenic peptide prepulse assay, E^k (baseline without AE peptide = 1.00) [2, 11]: 0.09

Ac-LRLKYPK-NH2 [AE301]
Activity in antigenic peptide prepulse assay, E^d (baseline = 1.00) [1, 4]: 0.48
Activity in antigenic peptide prepulse assay, E^d (baseline = 1.00) [1, 12]: 0.66
Activity in antigenic peptide prepulse assay, E^d (baseline = 1.0) [1, 7]: 0.34
Activity in antigenic peptide prepulse assay, E^k (baseline = 1.00) [2, 6]: 0.80
Activity in antigenic peptide prepulse assay, E^k (baseline = 1.00) [2, 13]: 0.86
Activity in antigenic peptide prepulse assay, E^k (baseline = 1.0) [2, 8]: 0.99

Ac-LR HArg KLPK-NH2 [AE197]
Activity in antigenic peptide prepulse assay, E^d (baseline = 1.0) [1, 7]: 0.32
Activity in antigenic peptide prepulse assay, E^k (baseline = 1.0) [2, 8]: 0.96

Ac-Y K MKLPKSAK-NH2 [AE134]
Activity in antigenic peptide prepulse assay, E^d (baseline = 1.00) [1, 9]: 0.60
Activity in antigenic peptide prepulse assay, E^d (baseline = 1.0) [1, 7]: 0.83
Activity in antigenic peptide prepulse assay, E^k (baseline = 1.00) [2, 10]: 0.43
Activity in antigenic peptide prepulse assay, E^k (baseline = 1.0) [2, 8]: 0.98

Ac-LRMKLPKPPK-NH2 [AE168]
Activity in antigenic peptide prepulse assay, E^d (baseline without AE peptide = 1.00) ([1]; supernatant 1:4): 0.10
Activity in antigenic peptide prepulse assay, E^k (baseline without AE peptide = 1.00) [2, 11]: 0.01

Ac-L[Cit]MKNPK-NH2 [AE342]
Activity in antigenic peptide prepulse assay, E^d (baseline = 1.00) [1, 12]: 0.67
Activity in antigenic peptide prepulse assay, E^k (baseline = 1.00) [2, 13]: 1.10

Ac-Y[hArg]MKLPKSAK-NH2 [AE132]
Activity in antigenic peptide prepulse assay, E^d (baseline = 1.00) [1, 9]: 0.58
Activity in antigenic peptide prepulse assay, E^d (baseline = 1.0) [1, 7]: 0.82
Activity in antigenic peptide prepulse assay, E^k (baseline = 1.00) [2, 10]: 0.1
Activity in antigenic peptide prepulse assay, E^k (baseline = 1.0) [2, 8]: 0.89

Ac-LRMKL p K-NH2 [AE165]
Activity in antigenic peptide prepulse assay, E^d (baseline = 1.00) [1, 3]: 0.25
Activity in antigenic peptide prepulse assay, E^k (baseline = 1.00) [2, 5]: 0.22

Ac-LR (mL) KyPK-NH2 [AE304]
Activity in antigenic peptide prepulse assay, E^d (baseline = 1.00) [1, 4]: 0.78
Activity in antigenic peptide prepulse assay, E^k (baseline = 1.00) [2, 6]: 0.76

Ac-ARNKNPF-NH2 [AE347]
Activity in antigenic peptide prepulse assay, E^d (baseline = 1.00) [1, 12]: 0.64
Activity in antigenic peptide prepulse assay, E^k (baseline = 1.00) [2, 13]: 1.10

Ac-LRMKLP N-NH2 (Ac-LRMKLPN-NH2) [AE246]
Activity in antigenic peptide prepulse assay, E^d (baseline = 1.0) [1, 7]: 0.69
Activity in antigenic peptide prepulse assay, E^k (baseline = 1.0) [2, 8]: 0.98

Ac-LRNKNPK-NH2 [AE349]
Activity in antigenic peptide prepulse assay, E^d (baseline = 1.00) [1, 12]: 0.69
Activity in antigenic peptide prepulse assay, E^k (baseline = 1.00) [2, 13]: 0.81

Ac-Y H MKLPKSAK-NH2 [AE133]
Activity in antigenic peptide prepulse assay, E^d (baseline = 1.00) [1, 9]: 0.39
Activity in antigenic peptide prepulse assay, E^k (baseline = 1.00) [2, 10]: 0.86

Ac-Y M MKLPKSAK-NH2 [AE141]
Activity in antigenic peptide prepulse assay, E^d (baseline = 1.00) [1, 9]: 0.41
Activity in antigenic peptide prepulse assay, E^k (baseline = 1.00) [2, 10]: 0.52

Ac-LRLKYPk-NH2 [AE307]
Activity in antigenic peptide prepulse assay, E^d (baseline = 1.00) [1, 4]: 0.59
Activity in antigenic peptide prepulse assay, E^k (baseline = 1.00) [2, 6]: 1.10

Ac-Y[Orn]MKLPKSAK-NH2 [AE130]
Activity in antigenic peptide prepulse assay, E^d (baseline = 1.00) [1, 9]: 0.79
Activity in antigenic peptide prepulse assay, E^k (baseline = 1.00) [2, 10]: 0.66

Ac-YRMKLPKSAK-NH2 [AE109]
Activity in antigenic peptide prepulse assay, E^d (baseline without AE peptide = 1.00) ([1]; supernatant 1:4): 0.11
Activity in antigenic peptide prepulse assay, E^d (baseline = 1.00) [1, 9]: 0.28
Activity in antigenic peptide prepulse assay, E^d (baseline = 1.00) ([1]; Table 21, prepulse 24 μM antigenic peptide, supernatant 1:8): 0.10
Activity in antigenic peptide prepulse assay, E^k (baseline without AE peptide = 1.00) [2, 11]: 0.07
Activity in antigenic peptide prepulse assay, E^k (baseline = 1.00) [2, 10]: 0.28
Activity in antigenic peptide prepulse assay, E^k (baseline = 1.00) ([2]; Table 21, AE peptide 16 μM, prepulse 20 μM antigenic peptide, supernatant 1:2): 0.07

Ac-Y D MKLPKSAK-NH2 [AE135]
Activity in antigenic peptide prepulse assay, E^d (baseline = 1.00) [1, 9]: 0.70
Activity in antigenic peptide prepulse assay, E^k (baseline = 1.00) [2, 10]: 0.95

Ac-l RMKLPK-NH2 [AE160]
Activity in antigenic peptide prepulse assay, E^d (baseline = 1.00) [1, 3]: 0.40
Activity in antigenic peptide prepulse assay, E^k (baseline = 1.00) [2, 5]: 0.47

Ac-LR (mL) KYPK-NH2 [AE303]
Activity in antigenic peptide prepulse assay, E^d (baseline = 1.00) [1, 4]: 0.78
Activity in antigenic peptide prepulse assay, E^k (baseline = 1.00) [2, 6]: 1.00

Ac-YAMKLPKSAK-NH2 [AE121]
Activity in antigenic peptide prepulse assay, E^d (baseline = 1.00) [1, 9]: 0.53
Activity in antigenic peptide prepulse assay, E^k (baseline = 1.00) [2, 10]: 0.59

Ac-ARNKNPK-NH2 [AE346]
Activity in antigenic peptide prepulse assay, E^d (baseline = 1.00) [1, 12]: 0.65
Activity in antigenic peptide prepulse assay, E^k (baseline = 1.00) [2, 13]: 0.77
